Measurements as given in patent publication EP2799881A1, “Method for the determination of the presence of an antibiotic in a fluid” (DSM IP Assets B.V., priority 2013, dated 2014).

Test system: test organism
Experiment: Microbial growth inhibition test (DSM Delvotest® SP-NT), detection limit of antibiotics in spiked milk, with tomatidine added to the test medium
Type: cell-based
Conditions: 64 °C
Protocol: As a reference, a commercially available test system without any added steroidal glycoalkaloid aglycone (DSM Delvotest® SP-NT, plates containing 8 x 12 test wells) was used. In addition, four different test systems were prepared by modifying the reference test by adding the steroidal glycoalkaloid aglycone tomatidine to the test medium in a final concentration of 50 ppb, 100 ppb, 500 ppb or 2000 ppb. The detection limits of two different antibiotics were measured in the reference test and in the tests with modified medium containing different concentrations of tomatidine. The antibiotics that were measured were streptomycin and dihydrostreptomycin (DH-streptomycin) (both belonging to the aminoglycoside antibiotic family). Five different concentrations of each antibiotic (see Table 1) were measured. Hundred microliter antibiotic-free milk or hundred microliter milk spiked with the respective concentrations of antibiotic was added to the test medium (170 µl) and incubated at 64 °C in a water bath. The tests were visually determined at the point in time where a sample without antibiotic had changed colour from purple to yellow. At this point, the plates were cooled in an ice bath for 5 minutes. The cooled plates were scanned on a Delvo® scanner. The colour of each well was expressed as a Z-value; a purple colour gives rise to a positive Z-value, while a yellow colour has a negative Z-value. The Z-value of test results with samples without antibiotic is typically -5 < Z < -10. Detailed description of the scanning technology and the expression of the colour in Z-values are described in WO 03/033728. For the determination of the detection limit for each antibiotic, a dose-response function (Z-value versus concentration of antibiotic) was constructed. The detection limit is defined as the antibiotic concentration where the S-shaped dose-response function has a Z-value equal to the cut-off value.

[1] = Tomatidine concentration in test 0 ppb (reference Delvotest® SP-NT), cut-off Z-value 0
[2] = Tomatidine concentration in test 50 ppb, cut-off Z-value 0, tomatidine 50 ppb in test
[3] = Tomatidine concentration in test 100 ppb, cut-off Z-value 0, tomatidine 100 ppb in test
[4] = Tomatidine concentration in test 500 ppb, cut-off Z-value 0, tomatidine 500 ppb in test
[5] = Tomatidine concentration in test 2000 ppb, cut-off Z-value 0, tomatidine 2000 ppb in test

Compound | Detection limit [1] [ppb] | Detection limit [2] [ppb] | Detection limit [3] [ppb] | Detection limit [4] [ppb] | Detection limit [5] [ppb]
CN[C@@H]1[C@H](O[C@H]2[C@H](O[C@H]3[C@H](O)[C@@H](O)[C@H](NC(=N)N)[C@@H](O)[C@@H]3NC(=N)N)O[C@@H](C)[C@]2(O)CO)O[C@@H](CO)[C@H](O)[C@H]1O [DH-streptomycin, dihydrostreptomycin] | 1471 | 1075 | 365 | 150 | 115
[H]/N=C(/N)N[C@H]1[C@H](O)[C@@H](O)[C@H](O[C@@H]2O[C@@H](C)[C@](O)(C=O)[C@H]2O[C@@H]2O[C@@H](CO)[C@H](O)[C@@H](O)[C@@H]2NC)[C@@H](N/C(N)=N\[H])[C@@H]1O [Streptomycin, streptomycin] | 2005 | 1523 | 398 | 295 | 79
